Test results as given in US8987284B2, “Phosphorus containing quinazoline compounds and methods of use” (Newgen Therapeutics, Inc., priority 2009, dated 2015).

Legend:
EGFR kinase = biological target: T1, EGFR kinase (Homo sapiens, UniProt P00533); test: Kinase assay for EGFR (TR-FRET LanthaScreen); assay type: biochemical; settings: % inhibition at 100 nM or IC50 (nM)
T1 construct: purchased Invitrogen PV3872
Description: The extent to which the compounds of the present invention modulate EGFR kinase activity can be determined using time-resolved Fret (TR-FRET) assay (LanthaScreen® kinase activity assay, from Invitrogen). The assay employs EGFR kinase (PV3872, Invitrogen), Tb-Py20 antibody (PV3552, Invitrogen) and fluorescein-poly GT (PV3610, In vitrogen)
The assay is performed in a Black 384-well plate (available from Corning). EGFR kinase (is diluted in TR-FRET Dilution Buffer (PV3189, InVitrogen) at concentration of 0.4 ug/ml as stock solution, and then 2-fold serial diluted. Addition of 1 mM ATP initiated the reaction, and the reaction is incubated for 1 h reaction at room temperature. 10 μL of the Tb-antibody (from Invitrogen)+EDTA (from Invitrogen) solution prepared was added to each well of the assay plate and mix briefly, and incubated for 30 min. The signal is monitored by using M5 microplate reader (Ex=332 nm, Em=488 nm and 518 nm). Each compound is tested in duplicate wells. EGFR without compound is used as control. Staurosporine (available from Sigma) is used as positive control compound. Inhibition was calculated as percentage of the EGFR activity (without compound)

BT474 cells = test: Cell proliferation inhibition assay for BT474 (CCK-8); assay type: cell-based; settings: Homo sapiens, BT-474; 72 h, 8 points
Description: Human breast cancer BT474 cells was cultured in low glucose DMEM (Life Technologies 12320-032) containing 10% fetal bovine serum (FBS) at 37° C. in a humidified 10% CO2, 90% air incubator. Cells were harvested using trypsin/EDTA, counted using a haemocytometer, and plated 10000 cell/well in a 96-well clear tissue culture plate. The cells were incubated for 24 h at 37° C. to allow adherence. A serials of concentrations of each compound (ranging from 30 uM to […], 5-fold dilution) in 96-well plate, and incubated for 72 h. Each concentration was tested in triplicate wells. During the cell proliferation assay, BT474 cells were cultured in low-glucose DMEM containing 5% FBS, 50 ug/ml gentamicin, and 0.3% v/v DMSO. The culture medium was removed via aspiration, and the cell viability was detected by using CCK-8 cell proliferation kit.

T1 sequence (P00533 25-1210): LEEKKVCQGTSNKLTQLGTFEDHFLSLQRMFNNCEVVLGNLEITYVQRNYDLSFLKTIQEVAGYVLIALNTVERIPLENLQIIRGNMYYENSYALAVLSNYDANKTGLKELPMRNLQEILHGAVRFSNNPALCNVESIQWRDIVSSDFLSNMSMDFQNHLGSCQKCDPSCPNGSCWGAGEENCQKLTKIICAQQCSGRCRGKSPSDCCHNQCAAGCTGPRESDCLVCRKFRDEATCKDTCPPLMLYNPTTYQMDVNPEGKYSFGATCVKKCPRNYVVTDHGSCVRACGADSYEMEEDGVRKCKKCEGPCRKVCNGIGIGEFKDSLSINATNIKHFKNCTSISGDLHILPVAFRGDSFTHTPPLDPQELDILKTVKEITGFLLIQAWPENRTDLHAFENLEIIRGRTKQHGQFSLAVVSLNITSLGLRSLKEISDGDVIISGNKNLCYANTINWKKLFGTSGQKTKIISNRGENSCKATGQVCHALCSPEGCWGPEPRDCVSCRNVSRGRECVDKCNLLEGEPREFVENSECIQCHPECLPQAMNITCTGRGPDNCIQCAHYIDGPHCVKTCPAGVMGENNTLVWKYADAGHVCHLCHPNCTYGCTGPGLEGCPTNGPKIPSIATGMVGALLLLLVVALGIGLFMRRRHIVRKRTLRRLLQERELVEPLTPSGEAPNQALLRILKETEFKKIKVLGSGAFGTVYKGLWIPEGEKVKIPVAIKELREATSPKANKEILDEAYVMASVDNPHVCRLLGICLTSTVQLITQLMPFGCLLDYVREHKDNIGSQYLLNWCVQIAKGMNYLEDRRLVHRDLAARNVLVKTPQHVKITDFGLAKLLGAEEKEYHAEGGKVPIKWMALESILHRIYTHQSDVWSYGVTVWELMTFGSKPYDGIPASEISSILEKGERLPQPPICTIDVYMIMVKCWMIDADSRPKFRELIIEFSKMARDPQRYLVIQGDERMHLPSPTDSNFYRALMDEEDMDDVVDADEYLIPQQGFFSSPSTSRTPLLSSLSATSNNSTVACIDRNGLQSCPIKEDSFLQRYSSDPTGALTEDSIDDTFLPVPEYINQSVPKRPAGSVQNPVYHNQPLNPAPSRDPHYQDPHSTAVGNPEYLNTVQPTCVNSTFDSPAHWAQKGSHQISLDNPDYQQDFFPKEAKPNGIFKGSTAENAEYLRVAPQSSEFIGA

SMILES: CP(C)(=O)CCNCc1ccc(-c2ccc3ncnc(Nc4ccc(OCc5cccc(F)c5)c(Cl)c4)c3c2)o1 [Example 2, 6-(5-((2-(dimethylphosphino)ethylaminoyl)methyl)furan-2-yl)-N-(4-(3-fluorobenzyloxy)-3-chlorophenyl)quinazolin-4-amine]
- EGFR inhibition inhibit % at 100 nM or IC50 (nM) (EGFR kinase): ++ (>50% inhibition at 100 nM, or IC50 <100 nM for EGFR or ErbB2 kinases)
- IC50 (BT474 cells): < 100 nM

SMILES: CCOP1(=O)CCN(Cc2ccc(-c3ccc4ncnc(Nc5ccc(OCc6cccc(F)c6)c(Cl)c5)c4c3)o2)CC1 [Example 17, N-(3-chloro-4-(3-fluorobenzyloxy)phenyl)-6-(5-((4-ethoxy-1,4-azaphosphino-1-yl)methyl)furan-2-yl)quinazolin-4-amine]
- EGFR inhibition inhibit % at 100 nM or IC50 (nM) (EGFR kinase): ++ (>50% inhibition at 100 nM, or IC50 <100 nM for EGFR or ErbB2 kinases)
- IC50 (BT474 cells): < 100 nM

SMILES: CP(C)(=O)CCNCC#Cc1ccc2ncnc(Nc3ccc(OCc4cccc(F)c4)c(Cl)c3)c2c1 [Example 10, 6-(3-(2-(dimethylphosphinoyl)ethylamino)prop-1-ynyl)-N-(4-(3-fluorobenzyloxy)-3-chlorophenyl)quinazolin-4-amine]
- EGFR inhibition inhibit % at 100 nM or IC50 (nM) (EGFR kinase): ++ (>50% inhibition at 100 nM, or IC50 <100 nM for EGFR or ErbB2 kinases)

SMILES: CP1(=O)CCN(Cc2ccc(-c3ccc4ncnc(Nc5cccc(Cl)c5F)c4c3)o2)CC1 [Example 19, N-(3-chloro-2-fluorophenyl)-6-(5-((4-methyl-1,4-azaphosphino-1-yl)methyl)furan-2-yl)quinazolin-4-amine]
- EGFR inhibition inhibit % at 100 nM or IC50 (nM) (EGFR kinase): ++ (>50% inhibition at 100 nM, or IC50 <100 nM for EGFR or ErbB2 kinases)

SMILES: CC1(C)COP(=O)(CCNCc2ccc(-c3ccc4ncnc(Nc5ccc(OCc6cccc(F)c6)c(Cl)c5)c4c3)o2)OC1 [Example 7, N-(3-chloro-4-(3-fluorobenzyloxy)phenyl)-6-(5-((2-(5,5-dimethyl-1,3,2-dioxaphosphino-2-yl)ethylamino)methyl)furan-2-yl)quinazolin-4-amine]
- EGFR inhibition inhibit % at 100 nM or IC50 (nM) (EGFR kinase): ++ (>50% inhibition at 100 nM, or IC50 <100 nM for EGFR or ErbB2 kinases)

SMILES: CP(C)(=O)CCN(CCO)Cc1ccc(-c2ccc3ncnc(Nc4ccc5c(cnn5Cc5cccc(F)c5)c4)c3c2)o1 [Example 27, 2-(N-((5-(4-(1-(3-fluorobenzyl)-1H-indazol-5-ylamino)quinazolin-6-yl)furan-2-yl)methyl)-N-(2-(dimethylphosphinoyl)ethyl)amino)ethanol]
- EGFR inhibition inhibit % at 100 nM or IC50 (nM) (EGFR kinase): ++ (>50% inhibition at 100 nM, or IC50 <100 nM for EGFR or ErbB2 kinases)
- IC50 (BT474 cells): < 100 nM

SMILES: CP(C)(=O)CN1CCN(Cc2ccc(-c3ccc4ncnc(Nc5ccc(OCc6cccc(F)c6)c(Cl)c5)c4c3)o2)CC1 [Example 13, N-(4-(3-fluorobenzyloxy)-3-chlorophenyl)-6-(5-((4-((dimethylphosphinoyl)-methyl)piperazin-1-yl)methyl)furan-2-yl)quinazolin-4-amine]
- EGFR inhibition inhibit % at 100 nM or IC50 (nM) (EGFR kinase): ++ (>50% inhibition at 100 nM, or IC50 <100 nM for EGFR or ErbB2 kinases)
- IC50 (BT474 cells): 100 to 1000 nM

SMILES: CP1(=O)CCN(Cc2ccc(-c3ccc4ncnc(Nc5ccc6c(cnn6Cc6cccc(F)c6)c5)c4c3)o2)CC1 [Example 16, N-(1-(3-fluorobenzyl)-1H-indazol-5-yl)-6-(5-((4-methyl-1,4-azaphosphino-1-yl)methyl)furan-2-yl)quinazolin-4-amine]
- EGFR inhibition inhibit % at 100 nM or IC50 (nM) (EGFR kinase): ++ (>50% inhibition at 100 nM, or IC50 <100 nM for EGFR or ErbB2 kinases)

SMILES: CP1(=O)CCN(Cc2ccc(-c3ccc4ncnc(Nc5ccc(OCc6cccc(F)c6)c(Br)c5)c4c3)o2)CC1 [Example 14, N-(4-(3-fluorobenzyloxy)-3-bromophenyl)-6-(5-((4-methyl-1,4-azaphosphino-1-yl)methyl)furan-2-yl)quinazolin-4-amine]
- EGFR inhibition inhibit % at 100 nM or IC50 (nM) (EGFR kinase): ++ (>50% inhibition at 100 nM, or IC50 <100 nM for EGFR or ErbB2 kinases)

SMILES: CP1(=O)CCN(Cc2ccc(-c3ccc4ncnc(Nc5ccc(OCc6cnccn6)c(Cl)c5)c4c3)o2)CC1 [Example 22, N-(3-chloro-4-(pyrazin-2-ylmethoxy)phenyl)-6-(5-((4-methyl-1,4-azaphosphino-1-yl)methyl)furan-2-yl)quinazolin-4-amine]
- EGFR inhibition inhibit % at 100 nM or IC50 (nM) (EGFR kinase): ++ (>50% inhibition at 100 nM, or IC50 <100 nM for EGFR or ErbB2 kinases)

SMILES: CP(C)(=O)CNCc1ccc(-c2ccc3ncnc(Nc4ccc(OCc5cccc(F)c5)c(Cl)c4)c3c2)o1 [Example 3, 6-(5-(((dimethylphosphinoyl)methylamino)methyl)furan-2-yl)-N-(4-(3-fluorobenzyloxy)-3-chlorophenyl)quinazolin-4-amine]
- EGFR inhibition inhibit % at 100 nM or IC50 (nM) (EGFR kinase): ++ (>50% inhibition at 100 nM, or IC50 <100 nM for EGFR or ErbB2 kinases)
- IC50 (BT474 cells): 100 to 1000 nM

SMILES: CP1(=O)CCN(Cc2ccc(-c3ccc4ncnc(Nc5ccc(OCc6cccc[n+]6[O-])c(Cl)c5)c4c3)o2)CC1 [Example 15, 2-((2-chloro-4-(6-(5-((4-methyl-1,4-azaphosphino-1-yl)methyl)furan-2-yl)quinazolin-4-ylamino)phenoxy)methyl)pyridine 1-oxide]
- EGFR inhibition inhibit % at 100 nM or IC50 (nM) (EGFR kinase): ++ (>50% inhibition at 100 nM, or IC50 <100 nM for EGFR or ErbB2 kinases)
- IC50 (BT474 cells): < 100 nM

SMILES: COP(=O)(CCNCc1ccc(-c2ccc3ncnc(Nc4ccc(OCc5cccc(F)c5)c(Cl)c4)c3c2)o1)OC [Example 6, dimethyl 2-((5-(4-(3-chloro-4-(3-fluorobenzyloxy)phenylamino)quinazolin-6-yl)furan-2-yl)methylamino)ethylphosphonate]
- EGFR inhibition inhibit % at 100 nM or IC50 (nM) (EGFR kinase): ++ (>50% inhibition at 100 nM, or IC50 <100 nM for EGFR or ErbB2 kinases)

SMILES: CP1(=O)CCN(CC#Cc2ccc3ncnc(Nc4ccc5c(cnn5Cc5cccc(F)c5)c4)c3c2)CC1 [Example 28, N-(1-(3-fluorobenzyl)-1H-indazol-5-yl)-6-(3-(4-methyl-1,4-azaphosphino-1-yl)prop-1-ynyl)quinazolin-4-amine]
- EGFR inhibition inhibit % at 100 nM or IC50 (nM) (EGFR kinase): ++ (>50% inhibition at 100 nM, or IC50 <100 nM for EGFR or ErbB2 kinases)
- IC50 (BT474 cells): 100 to 1000 nM

SMILES: CP1(=O)CCN(Cc2ccc(-c3ccc4ncnc(Nc5ccc(OCc6ccccn6)c(Cl)c5)c4c3)o2)CC1 [Example 8, N-(3-chloro-4-(pyridin-2-ylmethoxy)phenyl)-6-(5-((4-methyl-1,4-azaphosphino-1-yl)methyl)furan-2-yl)quinazolin-4-amine]
- EGFR inhibition inhibit % at 100 nM or IC50 (nM) (EGFR kinase): ++ (>50% inhibition at 100 nM, or IC50 <100 nM for EGFR or ErbB2 kinases)
- IC50 (BT474 cells): < 100 nM

SMILES: CP1(=O)CCN(Cc2ccc(-c3ccc4ncnc(Nc5ccc(Br)cc5F)c4c3)o2)CC1 [Example 20, N-(4-Bromo-2-fluorophenyl)-6-(5-((4-methyl-1,4-azaphosphino-1-yl)methyl)furan-2-yl)quinazolin-4-amine]
- EGFR inhibition inhibit % at 100 nM or IC50 (nM) (EGFR kinase): + (between 20% to 50% inhibition at 100 nM, or IC50 between 100 and 1000 nM)

SMILES: Cc1ccc(Oc2ccc(Nc3ncnc4ccc(-c5ccc(CN6CCP(C)(=O)CC6)o5)cc34)cc2C)cn1 [Example 12]
- EGFR inhibition inhibit % at 100 nM or IC50 (nM) (EGFR kinase): ++ (>50% inhibition at 100 nM, or IC50 <100 nM for EGFR or ErbB2 kinases)

SMILES: CP1(=O)CCN(CCCc2ccc3ncnc(Nc4ccc(OCc5cccc(F)c5)c(Cl)c4)c3c2)CC1 [Example 5, N-(3-chloro-4-(3-fluorobenzyloxy)phenyl)-6-(3-(4-methyl-1,4-azaphosphino-1-yl)propyl)quinazolin-4-amine]
- EGFR inhibition inhibit % at 100 nM or IC50 (nM) (EGFR kinase): ++ (>50% inhibition at 100 nM, or IC50 <100 nM for EGFR or ErbB2 kinases)

SMILES: CP1(=O)CCN(Cc2ccc(-c3ccc4ncnc(Nc5ccc(Br)c(Cl)c5F)c4c3)o2)CC1 [Example 21, N-(4-Bromo-3-chloro-2-fluorophenyl)-6-(5-((4-methyl-1,4-azaphosphino-1-yl)methyl)furan-2-yl)quinazolin-4-amine]
- EGFR inhibition inhibit % at 100 nM or IC50 (nM) (EGFR kinase): ++ (>50% inhibition at 100 nM, or IC50 <100 nM for EGFR or ErbB2 kinases)

SMILES: C[C@@H](Nc1ncnc2ccc(-c3ccc(CN4CCP(C)(=O)CC4)o3)cc12)c1ccccc1 [Example 18, (R)-6-(5-((4-methyl-1,4-azaphosphino-1-yl)methyl)furan-2-yl)-N-(1-phenylethyl)quinazolin-4-amine]
- EGFR inhibition inhibit % at 100 nM or IC50 (nM) (EGFR kinase): ++ (>50% inhibition at 100 nM, or IC50 <100 nM for EGFR or ErbB2 kinases)

SMILES: CP1(=O)CCN(C/C=C/c2ccc3ncnc(Nc4ccc(OCc5cccc(F)c5)c(Cl)c4)c3c2)CC1 [Example 11, N-(4-(3-fluorobenzyloxy)-3-chlorophenyl)-6-((E)-3-(4-methyl-1,4-azaphosphino-1-yl)prop-1-enyl)quinazolin-4-amine]
- EGFR inhibition inhibit % at 100 nM or IC50 (nM) (EGFR kinase): ++ (>50% inhibition at 100 nM, or IC50 <100 nM for EGFR or ErbB2 kinases)
